Earlier results on one compound are cited in patent US20090196914A1, “LIPOSOMAL L-CARNITINE” (priority 2002, published 2009).

For this data set the following is noted: oral drug.

In the case of `CCC(=O)O[C@H](CC(=O)[O-])C[N+](C)(C)C` [Propionyl-L-carnitine], the bioavailability – broadly, dose-corrected exposure relative to a reference, in per cent – was 15%.
